Measurements from patent US20060210479A1 (Dow Global Technologies Inc., priority 2004, published 2006).
Read-outs that look alike come from different tables or passages of the source.

Columns and labels:
[1] = test system: DMBA-induced tumor tissue of buccal cheek pouch; settings: 2 mM solution topical, 10 minutes; for Fluorescence/mg Cytoplasm / Fluorescence/mg Membrane: readings Adjusted Volume CNT*mm2
[2] = test system: normal cheek pouch tissue; settings: 2 mM solution topical, 10 minutes, readings Adjusted Volume CNT*mm2
[3] = test system: NCM-460 cells; settings: for EuQCTME Cell Binding (fluorescence per well): 1 mM
[4] = test system: RBL-2H3 cell line; test: Chelate permeability: fluorescence of cytoplasm and membrane fractions; assay type: cell-based, rat
Description: Tb-PCTMB (Tb(III) 3,6,9-tris(methylene phosphonic acid n-butyl ester)-3,6,9,15-tetraazabicyclo[9.3.1]pentadeca-1(15),11,13-triene) was tested for permeability to abnormal and disease-state cells.
RBL-2H3 is a rat basophilic leukemia cell line. These cells were grown in Iscove's Medium supplemented with 2 mM L-glutamnine, penicillin/streptomycin (100 IU/mL, 100 μg/mL) and 10% FBS. Cells were maintained at 5% CO2 and 95% humidity. PZ-HPV-7 cell line was derived from epithelial cells cultured from normal prostate tissue. They were grown in Keratinocyte-Serum Free Medium with human recombinant EGF and bovine pituitary extract supplemented with 50 μg/mL gentamicin and penicillin/streptomycin (100 IU/mL, 100 μg/mL). All media and supplements were purchased from Gibco BRL (Grand Island, N.Y., USA). All cell lines were obtained from ATCC and were maintained at 37° C., 5% CO2 and 95% humidity.
Cells were grown to confluence in T-150 flasks (about 2×10^6 cells). […] Cells were then removed from the flask by manual scraping. Cells were transferred to a 50-mL conical tube and centrifuged (400×g) for 5 minutes and the test material removed.
Cells were grown as described herein (Example 1). Cells were grown to confluence in T-150 flask (about 2×10^6 cells). […] Cells were then removed from the flask by manual scraping. Cells were transferred to a 50-mL conical tube and centrifuged (400×g) for 5 minutes and the test material removed.
Furthermore, one analogue, QCTMP (FIG. 26), having lesser lipophilic character (a free phosphonic acid moiety) was evaluated. […] In this study, the cytoplasm and membrane fractions were extracted by Mem-PER Eukaryotic Membrane Protein Extraction Reagent Kit as described by the manufacturers (Pierce Biotechnology, Rockford, Ill.) and analyzed by a Fluor-S Multilmager.

[5] = test system: C33-A cells; settings: 1 mM EuQCTME, up to 240 min
Description: (§1) Cells were counted and plated in a 20×100 mm cell culture dish at a density of about 2×10^6 cells.
(§2) After incubation cells were collected by trypsinization and gently centrifuged (about […]) for 10 minutes. The cell supematant was discarded, and the resulting cell pellet was washed in cold PBS (phosphate buffered saline). The cell pellet was centrifuged again (about 2000 rpm) for 10 minutes. The PBS supernatant was discarded and the cold PBS wash was repeated and centrifuged as above. After discarding the PBS supernatant, the resulting cell pellet was used for NE-PER extraction (Pierce, Rockford, Ill.) according to the manufacturer's instructions.
(§3) The resulting nuclear and cytoplasmic fractions from each time point were then placed into the wells of a 96-well white plate. Due to the volume of lysate available for measurement, the fractions were diluted 1:4 in HEPES binding buffer for a total volume of 100 liL. […] The following settings were optimized for measurement: excitation at 320 nm (band width: 35 nm), emission at 595 nm (bandwidth: 35 nm), gain 110, lag time 1 μs, integration time 2000 μs, # of flashes: 1.
(§4) Because lysate volume was in limited quantity and protein concentration was relatively low, absorbances for protein measurements were read using the formula of Kalckar (1.45 OD280-0.74OD260=mg protein/mL). Each time point measurement above (in RFU) was normalized to its corresponding protein content and recalculated as RFU/μg protein.

[6] = test system: Caco-2 cells; settings: 1 mM EuQCTME, up to 240 min
Description: as §1, §2, §3, §4

[7] = test system: NCM460 cells; settings: 1 mM EuQCTME, up to 240 min
Description: as §1, §2, §3, §4

[8] = test system: SK-MES cells; settings: 1 mM EuQCTME, up to 240 min
Description: as §1, §2, §3, §4

[9] = test system: DU-145 cells; settings: 1 mM EuQCTME, up to 240 min
Description: as §1, §2, §3, §4

[10] = test system: HLAC cells; settings: 1 mM EuQCTME, up to 240 min
Description: as §1, §2, §3, §4

[11] = test system: cancer cells (LNCaP, Caco-2, T84); test: Chelate permeability and specificity, cancer cells versus normal cells (summary); assay type: cell-based, human; settings: cancer cells
[12] = test system: PZ-HPV-7 normal cell line; test: Chelate permeability: fluorescence of cytoplasm and membrane fractions; assay type: cell-based
[13] = test system: C33-A cells; settings: for EuQCTME Cell Binding (fluorescence per well): 1 mM
[14] = test system: human cancer cell lines
Description: To assess whether or not chelate treatment of cancer cells could produce a net modulation in cell growth, the overall growth inhibitory effect of chelates on various cancer cell lines was tested. The concentration of chelate necessary to produce 50% growth inhibition was measured, as determined by detection of the formazan product of cellular degradation of 3-(4,5-dimethylthiazol-2-yl)-5-(3-carboxymethoxyphenyl)-2-(4-sulfophenyl)-2H-tetrazolium, inner salt (MTS).

[15] = test system: SK-MES cells; settings: for EuQCTME Cell Binding (fluorescence per well): 1 mM
[16] = PZ-HVP-7, 1 mM chelate, 2 h, Table 4

CCOP(=O)([O-])CN1CCN(Cc2ccc3cc(C)ccc3n2)CCN(CP(=O)([O-])OCC)CCN(CP(=O)([O-])OCC)CC1.[Eu+3] [Eu-QCTME, Eu(III) N-(6-methyl-2-quinolylmethyl)-N′,N″,N′″-tris(methylenephosphonic acid ethyl ester)-1,4,7,10-tetraazacyclododecane]
fluorescence in the cytoplasm of tumor tissue compared to normal tissue [1]: significantly greater fluorescence
Fluorescence/mg Cytoplasm ([1]; Tumor 1): 3524
Fluorescence/mg Membrane ([1]; Tumor 1): 1670
Fluorescence/mg Cytoplasm ([1]; Tumor 2): 3659
Fluorescence/mg Membrane ([1]; Tumor 2): 1676
Fluorescence/mg Cytoplasm ([2]; Normal 1): 1344
Fluorescence/mg Membrane ([2]; Normal 1): 1348
Fluorescence/mg Cytoplasm ([2]; Normal 2): 1369
Fluorescence/mg Membrane ([2]; Normal 2): 1374
EuQCTME Cell Binding (fluorescence per well) ([3]; 2 min): 2,757
EuQCTME Cell Binding (fluorescence per well) ([3]; 5 min): 3,325
EuQCTME Cell Binding (fluorescence per well) ([3]; 15 min): 14,042
EuQCTME Cell Binding (fluorescence per well) ([3]; 30 min): 18,535
EuQCTME Cell Binding (fluorescence per well) ([3]; 45 min): 18,737
EuQCTME Cell Binding (fluorescence per well) ([3]; 60 min): 20,666
EuQCTME Cell Binding (fluorescence per well) ([3]; 120 min): 2,388
EuQCTME Cell Binding (fluorescence per well) ([3]; 180 min): 1,598
EuQCTME Cell Binding (fluorescence per well) ([3]; 240 min): 16,682
Totals: Normalized total area under each curve (AUC) ([3]; over 240 min): 44
fluorescence in the membrane fractions, dose response ([4]; 0-2000 μM, 2 hours): detectable quantity of fluorescence
fluorescence in the cytoplasm, dose response ([4]; 0-2000 μM, 2 hours, compared to PZ-HPV-7): significant increases in fluorescence
Fluorescence/mg Cytoplasm ([4]; 1 mM chelate, 2 h, Table 4): 4415
Fluorescence/mg Membrane ([4]; 1 mM chelate, 2 h, Table 4): 2644
nuclear signal [5]: very low
nuclear and cytoplasmic fluorescence [6]: approximately 40 pg EuQCTME per μg protein
cytoplasm-associated fluorescence [7]: < 10 pg EuQCTME per μg protein
nuclear signal [7]: high nuclear signal
nuclear and cytoplasmic fluorescence [8]: approximately 40 pg EuQCTME per μg protein
nuclear and cytoplasmic fluorescence [9]: approximately 40 pg EuQCTME per μg protein
nuclear signal [10]: rapidly declined after an apparent initial burst
permeability to cell membranes [11]: permeable to cancer cell membranes
detectability in normal cells ([12]; PZ-HPV-7): significantly less detectable
Fluorescence/mg Cytoplasm [12, 16]: 2247
Fluorescence/mg Membrane [12, 16]: 2293
EuQCTME Cell Binding (fluorescence per well) ([13]; 2 min): 2,967
EuQCTME Cell Binding (fluorescence per well) ([13]; 5 min): 22,763
EuQCTME Cell Binding (fluorescence per well) ([13]; 15 min): 5,075
EuQCTME Cell Binding (fluorescence per well) ([13]; 30 min): 2,923
EuQCTME Cell Binding (fluorescence per well) ([13]; 45 min): 7,030
EuQCTME Cell Binding (fluorescence per well) ([13]; 60 min): 583
EuQCTME Cell Binding (fluorescence per well) ([13]; 120 min): 1,275
EuQCTME Cell Binding (fluorescence per well) ([13]; 180 min): 2,377
EuQCTME Cell Binding (fluorescence per well) ([13]; 240 min): 1,322
Totals: Normalized total area under each curve (AUC) ([13]; over 240 min): 9
cancer cell lines significantly inhibited compared to control [14]: 8 of 10 cancer cell lines were significantly inhibited
IC50 ([14]; read-out: Half-maximum growth inhibition concentration, range over examined cancer cell lines, 96 hour continuous exposure): 16 to 140 µM
time course cytotoxicity ([14]; up to 48 hours, most malignant cell lines): lack of measurable cytotoxicity
EuQCTME Cell Binding (fluorescence per well) ([15]; 2 min): 21,983
EuQCTME Cell Binding (fluorescence per well) ([15]; 5 min): 11,756
EuQCTME Cell Binding (fluorescence per well) ([15]; 15 min): 8,588
EuQCTME Cell Binding (fluorescence per well) ([15]; 30 min): 7,237
EuQCTME Cell Binding (fluorescence per well) ([15]; 45 min): 9,513
EuQCTME Cell Binding (fluorescence per well) ([15]; 60 min): 5,358
EuQCTME Cell Binding (fluorescence per well) ([15]; 120 min): 8,159
EuQCTME Cell Binding (fluorescence per well) ([15]; 180 min): 5,682
EuQCTME Cell Binding (fluorescence per well) ([15]; 240 min): 15,625
Totals: Normalized total area under each curve (AUC) ([15]; over 240 min): 28
